Assay results: US20060004028A1, “Novel PARP inhibitor” (MOCHIDA PHARMACEUTICAL CO., LTD., priority 2002, published 2006)

Row | Compound | melting point
1 | COc1ccc(C2NC(=O)c3ccc(Cl)c4c3N2CCC4=O)cc1 (centres unmarked) [Example 25, 8-chloro-3-(4-methoxyphenyl)-6,7-dihydro-3H,5H-pyrido[3,2,1-ij]quinazoline-1,7(2H)-dione] | 209.4 to 213.1 °C
2 | CN(C)CCCOc1ccc(C2NC(=O)c3cccc4c3N2CCC4=O)cc1 (centres unmarked) [Example 26, 3-(4-(3-N,N-dimethylaminopropoxy)phenyl)-6,7-dihydro-3H,5H-pyrido[3,2,1-ij]quinazoline-1,7(2H)-dione] | 174.3 to 178.2 °C
3 | COc1ccc(C2NC(=O)c3cccc4c3N2CCC4=O)cc1Br (centres unmarked) [Example 27, 3-(3-bromo-4-methoxyphenyl)-6,7-dihydro-3H,5H-pyrido[3,2,1-ij]quinazoline-1,7(2H)-dione] | 212.8 to 215.7 °C
4 | COc1ccc(C2NC(=O)c3cccc4c3N2CCC4=O)cc1O (centres unmarked) [Example 28, 3-(3-hydroxy-4-methoxyphenyl)-6,7-dihydro-3H,5H-pyrido[3,2,1-ij]quinazoline-1,7(2H)-dione] | 204.7 to 212.2 °C
5 | O=C1CCN2c3c1cccc3C(=O)NC2c1ccc(C(F)(F)F)cc1 (centres unmarked) [Example 35, 3-(4-trifluoromethylphenyl)-6,7-dihydro-3H,5H-pyrido[3,2,1-ij]quinazoline-1,7(2H)-dione] | 203.1 to 208 °C
6 | COc1cc(C2NC(=O)c3cccc4c3N2CCC4=O)ccc1F (centres unmarked) [Example 36, 3-(4-fluoro-3-methoxyphenyl)-6,7-dihydro-3H,5H-pyrido[3,2,1-ij]quinazoline-1,7(2H)-dione] | 171 to 172.9 °C
7 | CC(C)Oc1ccc(C2NC(=O)c3cccc4c3N2CCC4=O)cc1 (centres unmarked) [Example 37, 3-(4-isopropoxyphenyl)-6,7-dihydro-3H,5H-pyrido[3,2,1-ij]quinazoline-1,7(2H)-dione] | 175.8 to 177.1 °C
8 | COc1ccc(Cc2nc(=O)c3cccc4c3n2CCC4=O)cc1 [Example 41, 3-(4-methoxyphenyl)methyl-6,7-dihydro-5H-pyrido[3,2,1-ij]quinazoline-1,7-dione] | 81.4 to 82 °C
9 | COc1ccc(C2NC(=O)c3cccc4c3N2CCC4=O)cc1Cl (centres unmarked) [Example 42, 3-(3-chloro-4-methoxyphenyl)-6,7-dihydro-3H,5H-pyrido[3,2,1-ij]quinazoline-1,7(2H)-dione] | 174.5 to 176.9 °C
10 | COc1ccccc1C1NC(=O)c2cccc3c2N1CCC3=O (centres unmarked) [Example 43, 3-(2-methoxyphenyl)-6,7-dihydro-3H,5H-pyrido[3,2,1-ij]quinazoline-1,7(2H)-dione] | 214.7 to 219.5 °C
11 | COc1cccc(C2NC(=O)c3cccc4c3N2CCC4=O)c1 (centres unmarked) [Example 44, 3-(3-methoxyphenyl)-6,7-dihydro-3H,5H-pyrido[3,2,1-ij]quinazoline-1,7(2H)-dione] | 126.5 to 142.5 °C
12 | O=C1CCN2c3c1cccc3C(=O)NC2c1ccc(SC(F)(F)F)cc1 (centres unmarked) [Example 45, 3-(4-trifluoromethylthiophenyl)-6,7-dihydro-3H,5H-pyrido[3,2,1-ij]quinazoline-1,7(2H)-dione] | 178.2 to 180.9 °C
13 | O=C1CCN2c3c1cccc3C(=O)NC2c1ccsc1 (centres unmarked) [Example 46, 3-(3-thienyl)-6,7-dihydro-3H,5H-pyrido[3,2,1-ij]quinazoline-1,7(2H)-dione] | 190.9 to 193.4 °C
14 | COc1ccc2cc(C3NC(=O)c4cccc5c4N3CCC5=O)ccc2c1 (centres unmarked) [Example 47, 3-(6-methoxynaphthalene-2-yl)-6,7-dihydro-3H,5H-pyrido[3,2,1-ij]quinazoline-1,7(2H)-dione] | 191.4 to 195.5 °C
15 | CN(C)c1ccc(C2NC(=O)c3cccc4c3N2CCC4=O)cc1 (centres unmarked) [Example 48, 3-(4-N,N-dimethylaminophenyl)-6,7-dihydro-3H,5H-pyrido[3,2,1-ij]quinazoline-1,7(2H)-dione] | 198.7 to 202.6 °C
16 | COc1ccc(C2NC(=O)c3cccc4c3N2CCC4=O)c(C)c1 (centres unmarked) [Example 49, 3-(2-methyl-4-methoxyphenyl)-6,7-dihydro-3H,5H-pyrido[3,2,1-ij]quinazoline-1,7(2H)-dione] | 100.2 to 101.1 °C
17 | COc1ccc(C2NC(=O)c3cc(OC(F)(F)F)cc4c3N2CCC4=NO)cc1 (centres unmarked) [Example 50, 7-hydroxyimino-3-(4-methoxyphenyl)-9-trifluoromethoxy-6,7-dihydro-3H,5H-pyrido[3,2,1-ij]quinazoline-1(2H)-one] | 232.7 to 234.3 °C
18 | CON=C1CCN2c3c(cc(F)cc31)C(=O)NC2c1ccc(OC)cc1 (centres unmarked) [Example 51, 9-fluoro-7-methoxyimino-3-(4-methoxyphenyl)-6,7-dihydro-3H,5H-pyrido[3,2,1-ij]quinazoline-1(2H)-one] | 200.1 to 202.9 °C
19 | COc1ccc(C2NC(=O)c3ccc(Cl)c4c3N2CCC4=NO)cc1 (centres unmarked) [Example 52, 8-chloro-7-hydroxyimino-3-(4-methoxyphenyl)-6,7-dihydro-3H,5H-pyrido[3,2,1-ij]quinazoline-1(2H)-one] | 132.9 to 133.4 °C

Row | Compound | melting point
20 | CON=C1CCN2c3c(cccc31)C(=O)NC2c1ccc(OCCCN(C)C)cc1 (centres unmarked) [Example 53, 7-methoxyimino-3-[4-(3-N,N-dimethylaminopropoxy)phenyl]-6,7-dihydro-3H,5H-pyrido[3,2,1-ij]quinazoline-1(2H)-one] | 164.3 to 167 °C
21 | CON=C1CCN2c3c(cccc31)C(=O)NC2c1ccc(OC)c(Br)c1 (centres unmarked) [Example 54, (3-bromo-4-methoxyphenyl)-7-methoxyimino-6,7-dihydro-3H,5H-pyrido[3,2,1-ij]quinazoline-1(2H)-one] | 218.7 to 221.7 °C
22 | CON=C1CCN2c3c(cccc31)C(=O)NC2c1ccc(OC)c(O)c1 (centres unmarked) [Example 55, 3-(3-hydroxy-4-methoxyphenyl)-7-methoxyimino-6,7-dihydro-3H,5H-pyrido[3,2,1-ij]quinazoline-1(2H)-one] | 185.3 to 189.8 °C
23 | COc1cc(C2NC(=O)c3cccc4c3N2CCC4=NO)cc(Br)c1OC (centres unmarked) [Example 56, 3-(3-bromo-4,5-dimethoxyphenyl)-7-hydroxyimino-6,7-dihydro-3H,5H-pyrido[3,2,1-ij]quinazoline-1(2H)-one] | 133.9 to 146.8 °C
24 | COc1ccc(C2NC(=O)c3cccc4c3N2CCC4=NO)cc1C (centres unmarked) [Example 57, 7-hydroxyimino-3-(3-methyl-4-methoxyphenyl)-6,7-dihydro-3H,5H-pyrido[3,2,1-ij]quinazoline-1(2H)-one] | 236 to 243.3 °C
25 | CON=C1CCN2c3c(cccc31)C(=O)NC2c1ccc(-n2ccnc2)cc1 (centres unmarked) [Example 58, 3-[4-(imidazole-1-yl)phenyl]-7-methoxyimino-6,7-dihydro-3H,5H-pyrido[3,2,1-ij]quinazoline-1(2H)-one] | 246.3 °C (dec.)
26 | CCOC(=O)COc1ccc(C2NC(=O)c3cccc4c3N2CCC4=NO)cc1 (centres unmarked) [Example 59, 3-(4-ethoxycarbonylmethoxyphenyl)-7-hydroxyimino-6,7-dihydro-3H,5H-pyrido[3,2,1-ij]quinazoline-1(2H)-one] | 198.6 to 203.3 °C
27 | O=C1NC(c2ccc(OCCO)cc2)N2CCC(=NO)c3cccc1c32 (centres unmarked) [Example 60, 7-hydroxyimino-3-(4-hydroxyethoxyphenyl)-6,7-dihydro-3H,5H-pyrido[3,2,1-ij]quinazoline-1(2H)-one] | 183.9 to 186.3 °C
28 | COc1cc(C2NC(=O)c3cccc4c3N2CCC4=NO)ccc1O (centres unmarked) [Example 61, 7-hydroxyimino-3-(4-hydroxy-3-methoxyphenyl)-6,7-dihydro-3H,5H-pyrido[3,2,1-ij]quinazoline-1(2H)one] | 174.4 to 189.3 °C
29 | CON=C1CCN2c3c(cccc31)C(=O)NC2c1ccc(C(F)(F)F)cc1 (centres unmarked) [Example 62, 7-methoxyimino-3-(4-trifluoromethylphenyl)-6,7-dihydro-3H,5H-pyrido[3,2,1-ij]quinazoline-1(2H)-one] | 199.4 to 207.2 °C
30 | COc1cc(C2NC(=O)c3cccc4c3N2CCC4=NO)ccc1F (centres unmarked) [Example 63, 3-(4-fluoro-3-methoxyphenyl)-7-hydroxyimino-6,7-dihydro-3H,5H-pyrido[3,2,1-ij]quinazoline-1(2H)-one] | 245.4 to 246.6 °C
31 | CON=C1CCN2c3c(cccc31)C(=O)NC2c1ccc(OC(C)C)cc1 (centres unmarked) [Example 64, 3-(4-isopropoxyphenyl)-7-methoxyimino-6,7-dihydro-3H,5H-pyrido[3,2,1-ij]quinazoline-1(2H)-one] | 167.4 to 168.9 °C
32 | CON=C1CCN2c3c(cccc31)C(=O)NC2c1cccnc1 (centres unmarked) [Example 67, 7-methoxyimino-3-(3-pyridyl)-6,7-dihydro-3H,5H-pyrido[3,2,1-ij]quinazoline-1(2H)-one] | 178.6 to 185.9 °C
33 | CON=C1CCN2c3c(cccc31)C(=O)NC2Cc1ccc(OC)cc1 (centres unmarked) [Example 69, 7-methoxyimino-3-(4-methoxyphenyl)methyl-6,7-dihydro-3H,5H-pyrido[3,2,1-ij]quinazoline-1(2H)-one] | 190 to 195.9 °C
34 | COc1ccc(C2NC(=O)c3cccc4c3N2CCC4=NO)cc1Cl (centres unmarked) [Example 70, 3-(3-chloro-4-methoxyphenyl)-7-hydroxyimino-3-6,7-dihydro-3H,5H-pyrido[3,2,1-ij]quinazoline-1(2H)-one] | 220 °C (dec.)
35 | CON=C1CCN2c3c(cccc31)C(=O)NC2c1ccc([N+](=O)[O-])cc1 (centres unmarked) [Example 71, 7-methoxyimino-3-(4-nitrophenyl)-6,7-dihydro-3H,5H-pyrido[3,2,1-ij]quinazoline-1(2H)-one] | 112.9 to 116.4 °C
36 | O=C1NC(c2ccc([N+](=O)[O-])cc2)N2CCC(=NO)c3cccc1c32 (centres unmarked) [Example 73, 7-hydroxyimino-3-(4-nitrophenyl)-6,7-dihydro-3H,5H-pyrido[3,2,1-ij]quinazoline-1(2H)-one] | 220 to 224.7 °C
37 | N#Cc1ccc(C2NC(=O)c3cccc4c3N2CCC4=NO)cc1 (centres unmarked) [Example 74, 3-(4-cyanophenyl)-7-hydroxyimino-6,7-dihydro-3H,5H-pyrido[3,2,1-ij]quinazoline-1(2H)-one] | > 250 °C
38 | O=C1NC(c2ccc(F)c(F)c2)N2CCC(=NO)c3cccc1c32 (centres unmarked) [Example 75, 3-(3,4-difluorophenyl)-7-hydroxyimino-6,7-dihydro-3H,5H-pyrido[3,2,1-ij]quinazoline-1(2H)-one] | 218.4 to 222.3 °C
